Tests used:
MECP2-KO neurons [1] = test: Co-localized pre/postsynaptic puncta quantification in neurons; assay type: cell-based, human; conditions: one-month old MECP2-KO neurons treated two weeks
Experimental: (§1) Pharmacologic treatment. One-month old cortical organoids were treated for 1 mo with either Nefiracetam (10 μM) or PHA 543613 (10 μM) during media changes.
Synaptic puncta quantification. Co-localized pre and postsynaptic puncta (Vglut and Homer1 immunostained) along MAP2-positive processes were quantified. Primary antibodies (see above) incubated 2 h, secondary antibodies incubated 1 h, and coverslips were mounted. Slides were analyzed under fluorescence microscopy.
Pharmacologic screening identifies two compounds that specifically reverse MECP2-KO phenotypes. 14 commercially available pharmacologic compounds with mechanisms of action that counteract the synapse and neurotransmitter pathologies were selected and which are identified in FIG. 5B. […] MECP2-KO and control neurons were treated with each of the 14 compounds and employed a tiered series of assays to identify those that could selectively rescue MECP2-KO pathology without affecting controls. […] The capacity of these compounds to increase pre and post co-localized synaptic puncta in MECP2-KO neurons were evaluated, again eliminating the drugs that affected control neurons (see FIG. 5F-G, and FIG. 6C-D).

MECP2-KO neurons [2] = test: Calcium imaging of neurons; assay type: cell-based, human; conditions: vs untreated KO
Experimental: as §1
Calcium imaging. Calcium imaging was performed as described in Chailangkarn et al. Briefly, PSC-derived neuronal networks were lentivirally transduced with a Syn::RFP reporter construct. Cultures were washed with Krebs HEPES buffer and incubated with Fluo-4AM (Molecular Probes/Invitrogen, Carlsbad, Calif., USA). A Hamamatsu ORCA-ER digital camera (Hamamatsu Photonics, Japan) with 488 nm filter on an Olympus IX81 inverted fluorescence confocal microscope (Olympus Optical, Tokyo, Japan) acquired 5000 frames at 28 Hz in a 256×256 pixel region (100× magnification). Images were acquired with MetaMorph7.7 (MDS Analytical Technologies, Sunnyvale, Calif., USA) and analyzed with ImageJ and Matlab7.2 (Mathworks, Natick, Mass., USA). Syn::RFP+ neurons were selected following tetrodotoxin blockade of calcium transients. A 95th-percentile threshold of amplitude for calcium spikes was set for event detection; signal amplitude is presented as fluorescence change (ΔF/F) following background subtraction.

[3] = large Carbamoylcholine metabolite; cited from earlier work

## CC(=O)NCCCS(=O)(=O)O [Acamprosate]
MECP2-KO neurons [1]
  synaptogenesis / co-localized synaptic puncta: specifically increased synaptogenesis
MECP2-KO neurons [2]
  frequency of calcium oscillations: increases
  percentage of active neurons: increases

## C[N+](C)(C)CCOC(N)=O [Carbamoylcholine]
[3]
  gastrointestinal absorption: limited gastrointestinal absorption
  traversal of the blood-brain barrier: cannot traverse the blood-brain barrier

Source: US20230102192A1, “THERAPIES FOR THE TREATMENT OF DISEASES AND DISORDERS ASSOCIATED WITH ABNORMAL EXPRESSION OF A NEURAL-ASSOCIATED GENE” (The Regents of the University of California, priority 2020, published 2023)
